Measured values reported in ChEMBL document CHEMBL1201862, “PubChem BioAssay data set” (2004).
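Method: 48-hour compound exposure of cells in 96-well plates, five concentrations, linear interpolation of endpoints. The concentration for 50% growth inhibition is given as GI50.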 The source made the active and inactive calls. No stated cut-off is given here; in the data, active = GI50 up to about 1.1 µM and inactive = higher.

Legend:
Assay in all cases: growth of human tumour cells (NCI), 48 h
[1] = test system: MDA-MB-231
[2] = test system: RXF 393
[3] = test system: NCI-H460
[4] = test system: OVCAR-8
[5] = test system: HCC 2998
[6] = test system: SN12C
[7] = test system: OVCAR-5
[8] = test system: LOX IMVI
[9] = test system: SK-OV-3
[10] = test system: M14
[11] = test system: ACHN
[12] = test system: BT-549
[13] = test system: SNB-78
[14] = test system: CAKI-1
[15] = test system: DMS-114
[16] = test system: IGROV-1
[17] = test system: PC-3
[18] = test system: HT-29
[19] = test system: UACC-257
[20] = test system: NCI-H23
[21] = test system: COLO 205
[22] = test system: HCT-116
[23] = test system: DLD-1
[24] = test system: KM-20L2
[25] = test system: HOP-92
[26] = test system: T47D
[27] = test system: SNB-75
[28] = test system: NCI/ADR-RES
[29] = test system: MCF7
[30] = test system: UO-31
[31] = test system: K562
[32] = test system: SNB-19
[33] = test system: OVCAR-3
[34] = test system: SR
[35] = test system: U-251
[36] = test system: OVCAR-4
[37] = test system: DU-145
[38] = test system: Malme-3M
[39] = test system: MDA-N
[40] = test system: RPMI-8226
[41] = test system: 786-0
[42] = test system: CCRF-CEM
[43] = test system: NCI-H522
[44] = test system: NCI-H226
[45] = test system: A498
[46] = test system: HOP-62
[47] = test system: Hs-578T
[48] = test system: UACC-62
[49] = test system: XF498
[50] = test system: A549
[51] = test system: HOP-18
[52] = test system: KM12
[53] = test system: SW-620
[54] = test system: SF-295
[55] = test system: RXF 631
[56] = test system: M19-MEL
[57] = test system: SF-268
[58] = test system: SK-MEL-5
[59] = test system: HCT-15
[60] = test system: SK-MEL-28
[61] = test system: SF-539
[62] = test system: SK-MEL-2
[63] = test system: LXFL 529
[64] = test system: DMS-273
[65] = test system: HL-60
[66] = test system: MOLT-4
[67] = test system: EKVX
[68] = test system: MDA-MB-435
[69] = test system: TK-10

In the case of `CNC(=O)OCc1nc(SSC(C)(C)C)n(C)c1COC(=O)NC`, the GI50 [1] is reported as 2.24 µM (inactive), the GI50 [2] is reported as 1.45 µM (inactive) and the GI50 [3] is reported as 10.7 µM (inactive). The GI50 [4] was 2.07 µM (inactive), the GI50 [5] was 8.91 µM (inactive) and the GI50 [6] was 4.42 µM (inactive). For the same compound, the GI50 [7] was 10.4 µM (inactive), the GI50 [8] was 3.58 µM (inactive) and the GI50 [9] was 17.1 µM (inactive). For the same compound, the GI50 [10] was 1.71 µM (inactive), the GI50 [11] was 2.7 µM (inactive) and the GI50 [12] was 1.47 µM (inactive). For the same compound, the GI50 [13] was 7.83 µM (inactive), the GI50 [14] was 1.82 µM (inactive) and the GI50 [15] was 1.72 µM (inactive). The GI50 [16] was 8.13 µM (inactive), the GI50 [17] was 8.75 µM (inactive) and the GI50 [18] was 5.56 µM (inactive). The GI50 [19] was 2.94 µM (inactive), the GI50 [20] was 2.71 µM (inactive) and the GI50 [21] was 1.59 µM (inactive). For the same compound, the GI50 [22] was 1.72 µM (inactive), the GI50 [23] was 1.43 µM (inactive) and the GI50 [24] was 12.8 µM (inactive). For the same compound, the GI50 [25] was 1.78 µM (inactive), the GI50 [26] was 2.81 µM (inactive) and the GI50 [27] was 8.57 µM (inactive). The GI50 [28] was 5.52 µM (inactive), the GI50 [29] was 4.3 µM (inactive) and the GI50 [30] was 9.02 µM (inactive). For the same compound, the GI50 [31] was 1.94 µM (inactive), the GI50 [32] was 18 µM (inactive) and the GI50 [33] was 2.1 µM (inactive). For the same compound, the GI50 [34] was 1.05 µM (active), the GI50 [35] was 12.9 µM (inactive) and the GI50 [36] was 2.01 µM (inactive). For the same compound, the GI50 [37] was 19.1 µM (inactive), the GI50 [38] was 1.86 µM (inactive) and the GI50 [39] was 2.45 µM (inactive). For the same compound, the GI50 [40] was 2.54 µM (inactive), the GI50 [41] was 3.06 µM (inactive) and the GI50 [42] was 0.697 µM (active). The GI50 [43] was 1.16 µM (inactive), the GI50 [44] was 13.3 µM (inactive) and the GI50 [45] was 9.38 µM (inactive). The GI50 [46] was 12.8 µM (inactive), the GI50 [47] was 2.22 µM (inactive) and the GI50 [48] was 1.95 µM (inactive). For the same compound, the GI50 [49] was 2.32 µM (inactive), the GI50 [50] was 14.2 µM (inactive) and the GI50 [51] was 5.18 µM (inactive). For the same compound, the GI50 [52] was 17.3 µM (inactive), the GI50 [53] was 1.61 µM (inactive) and the GI50 [54] was 17.1 µM (inactive). For the same compound, the GI50 [55] was 1.73 µM (inactive), the GI50 [56] was 3.32 µM (inactive) and the GI50 [57] was 6.75 µM (inactive). For the same compound, the GI50 [58] was 5.98 µM (inactive), the GI50 [59] was 1.84 µM and the GI50 [60] was 1.84 µM (inactive). For the same compound, the GI50 [61] was 3.94 µM (inactive), the GI50 [62] was 8.02 µM (inactive) and the GI50 [63] was 1.24 µM (inactive). For the same compound, the GI50 [64] was 5.97 µM (inactive), the GI50 [65] was 0.863 µM (active) and the GI50 [66] was 1.28 µM (inactive). The GI50 [67] was 8.28 µM (inactive), the GI50 [68] was 4.83 µM (inactive) and the GI50 [69] was 6.11 µM (inactive).
In the case of `COc1ccc(/C=N/Nc2nc(-c3cc4oc(=O)n(C)c4cc3Cl)cs2)cc1OC`, the GI50 [2] is reported as 15.4 µM (inactive), the GI50 [3] is reported as 20.7 µM (inactive) and the GI50 [4] is reported as 36.6 µM (inactive). The GI50 [5] was 35.6 µM (inactive), the GI50 [6] was 17.9 µM (inactive) and the GI50 [7] was > 100 µM (inactive). The GI50 [8] was 28.6 µM (inactive), the GI50 [9] was > 100 µM (inactive) and the GI50 [10] was 78.5 µM (inactive). For the same compound, the GI50 [11] was 7.66 µM (inactive), the GI50 [13] was 37.2 µM (inactive) and the GI50 [14] was 79.3 µM (inactive). The GI50 [15] was 5.87 µM (inactive), the GI50 [16] was 14 µM (inactive) and the GI50 [18] was 9.33 µM (inactive). For the same compound, the GI50 [19] was 4.27 µM (inactive), the GI50 [20] was 6.15 µM (inactive) and the GI50 [21] was 81.8 µM (inactive). The GI50 [22] was 9.04 µM (inactive), the GI50 [23] was 10.7 µM (inactive) and the GI50 [24] was 15.7 µM (inactive). The GI50 [25] was 25.4 µM (inactive), the GI50 [27] was 28.7 µM (inactive) and the GI50 [30] was 13.6 µM (inactive). For the same compound, the GI50 [31] was 4.89 µM (inactive), the GI50 [32] was 49.2 µM (inactive) and the GI50 [33] was 9.95 µM (inactive). For the same compound, the GI50 [34] was 77.4 µM (inactive), the GI50 [35] was 15.7 µM (inactive) and the GI50 [36] was 11.2 µM (inactive). The GI50 [38] was 10.5 µM (inactive), the GI50 [40] was 8.26 µM (inactive) and the GI50 [41] was 33.4 µM (inactive). For the same compound, the GI50 [42] was 91 µM (inactive), the GI50 [46] was 36.2 µM (inactive) and the GI50 [48] was 16.8 µM (inactive). The GI50 [49] was 10.7 µM (inactive), the GI50 [50] was 4.35 µM (inactive) and the GI50 [51] was > 100 µM (inactive). The GI50 [52] was 18.8 µM (inactive), the GI50 [53] was 44.1 µM (inactive) and the GI50 [54] was 9.23 µM (inactive). The GI50 [55] was 21 µM (inactive), the GI50 [56] was 7.8 µM (inactive) and the GI50 [57] was 35.3 µM (inactive). For the same compound, the GI50 [58] was 2.36 µM (inactive), the GI50 [59] was 6.65 µM and the GI50 [60] was > 100 µM (inactive). The GI50 [61] was 48.3 µM (inactive), the GI50 [62] was 53.1 µM (inactive) and the GI50 [63] was 15.3 µM (inactive). The GI50 [64] was 11.9 µM (inactive), the GI50 [65] was 15.7 µM (inactive) and the GI50 [66] was 9.75 µM (inactive). The GI50 [67] was 9.51 µM (inactive) and the GI50 [69] was 36.7 µM (inactive).
